Reference: ChEMBL document CHEMBL1201862, “PubChem BioAssay data set” (2004)
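Each compound was tested at five concentrations against cells in 96-well plates for 48 hours. GI50 = concentration required for 50% inhibition of growth.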 The source made the active and inactive calls. No stated cut-off is given here; in the data, active = GI50 up to about 1.1 µM and inactive = higher.

How the values were obtained:
Experiment in all cases: NCI anticancer screen, dose series, 48 h
SF-268 = tested on: SF-268
RPMI-8226 = tested on: RPMI-8226
MDA-N = tested on: MDA-N
MDA-MB-435 = tested on: MDA-MB-435
PC-3 = tested on: PC-3
UACC-257 = tested on: UACC-257
OVCAR-4 = tested on: OVCAR-4
SR = tested on: SR
T47D = tested on: T47D
MDA-MB-231 = tested on: MDA-MB-231
IGROV-1 = tested on: IGROV-1
EKVX = tested on: EKVX
RXF 393 = tested on: RXF 393
OVCAR-8 = tested on: OVCAR-8
A549 = tested on: A549
HL-60 = tested on: HL-60
NCI-H226 = tested on: NCI-H226
DU-145 = tested on: DU-145
HOP-92 = tested on: HOP-92

| SMILES | GI50 (SF-268) | GI50 (RPMI-8226) | GI50 (MDA-N) | GI50 (MDA-MB-435) | GI50 (PC-3) | GI50 (UACC-257) | GI50 (OVCAR-4) | GI50 (SR) | GI50 (T47D) | GI50 (MDA-MB-231) | GI50 (IGROV-1) | GI50 (EKVX) | GI50 (RXF 393) | GI50 (OVCAR-8) | GI50 (A549) | GI50 (HL-60) | GI50 (NCI-H226) | GI50 (DU-145) | GI50 (HOP-92) |
| --- | --- | --- | --- | --- | --- | --- | --- | --- | --- | --- | --- | --- | --- | --- | --- | --- | --- | --- | --- |
| CCCCCCCCCC[C@H](O)[C@H]1CC[C@H]([C@H]2CC[C@H]([C@H](O)CC[C@H](O)CCCCCCC[C@@H](O)CC3=C[C@H](C)OC3=O)O2)O1 | 3.57 µM (inactive) | 1.04 µM (active) | 8.75 µM (inactive) | 3.9 µM (inactive) | 5.7 µM (inactive) | 1.08 µM (active) | 41.4 µM (inactive) | 9.14 µM (inactive) | 5.25 µM (inactive) | > 10 µM (inactive) | 15.7 µM (inactive) | 23.5 µM (inactive) | 40 µM (inactive) | 85.7 µM (inactive) | 4.6 µM (inactive) | 2.51 µM (inactive) | 2.47 µM (inactive) | > 10 µM (inactive) | 6.93 µM (inactive) |
| COc1nc(C)nc2c1ncn2Cc1ccccc1 | 57.3 µM (inactive) | > 100 µM (inactive) | > 100 µM (inactive) | > 100 µM (inactive) | > 100 µM (inactive) | > 100 µM (inactive) | > 100 µM (inactive) | > 100 µM (inactive) | > 100 µM (inactive) | > 100 µM (inactive) | > 100 µM (inactive) | 80.7 µM (inactive) | > 100 µM (inactive) | > 100 µM (inactive) | > 100 µM (inactive) | > 100 µM (inactive) | > 100 µM (inactive) | > 100 µM (inactive) | < 0.01 µM (active) |
| Brc1ccc(CCNCCN2CCCCC2)cc1 | 15.5 µM (inactive) | 37.7 µM (inactive) | 10.7 µM (inactive) | 5.47 µM (inactive) | 15.6 µM (inactive) | 14.8 µM (inactive) | 19.3 µM (inactive) | > 100 µM (inactive) | 15.6 µM (inactive) | 8.05 µM (inactive) | 17.1 µM (inactive) | 33.1 µM (inactive) | 33.6 µM (inactive) | 16.5 µM (inactive) | 16.4 µM (inactive) | 33 µM (inactive) | 37.8 µM (inactive) | 35.6 µM (inactive) | 10.8 µM (inactive) |
| COc1ccc2nc3cc([N+](=O)[O-])ccc3c(NNc3ccc(Cl)cc3)c2c1 | 43.5 µM (inactive) | 22.8 µM (inactive) | 31.6 µM (inactive) | 26.1 µM (inactive) | 24.8 µM (inactive) | 1.01 µM (active) | 38.5 µM (inactive) | 12.5 µM (inactive) | 32.5 µM (inactive) | 19.6 µM (inactive) | 2.94 µM (inactive) | 26.2 µM (inactive) | > 39.7 µM (inactive) | 21.1 µM (inactive) | 17.2 µM (inactive) | 23.1 µM (inactive) | 1.1 µM (active) | 38.9 µM (inactive) | 20.9 µM (inactive) |
| COc1ccc(C2C3=C(COC3=O)OC(C)(C)Oc3cc4c(cc32)OCO4)cc1 (stereo not drawn) | 44.6 µM (inactive) | 34.1 µM (inactive) | 2.96 µM (inactive) | 3.51 µM (inactive) | 15.1 µM (inactive) | 38.3 µM (inactive) | 33.9 µM (inactive) | 43.1 µM (inactive) | 26.3 µM (inactive) | 18.6 µM (inactive) | 29.3 µM (inactive) | 35.5 µM (inactive) | 36.6 µM (inactive) | 55.8 µM (inactive) | 35.6 µM (inactive) | 12 µM (inactive) | > 55.3 µM (inactive) | 32.5 µM (inactive) | 11.8 µM (inactive) |
| C[C@@H](CO)C1=CC(C#C[Si](C)(C)C)N(C(=O)Oc2ccccc2)c2ccccc21 (stereo partly drawn) | 16.5 µM (inactive) | 24.9 µM (inactive) | 7.08 µM (inactive) | 3.45 µM (inactive) | 19.6 µM (inactive) | 16.8 µM (inactive) | 12.6 µM (inactive) | 5.65 µM (inactive) | 18.2 µM (inactive) | 17.7 µM (inactive) | 17.1 µM (inactive) | 23.3 µM (inactive) | 5.86 µM (inactive) | 17.5 µM (inactive) | 20.9 µM (inactive) | 17.1 µM (inactive) | 20 µM (inactive) | 21.6 µM (inactive) | 11.7 µM (inactive) |
| O=C(N/N=C\c1ccc(Cl)cc1)Nc1cccc2ccccc12 | 6.44 µM (inactive) | 5.66 µM (inactive) | 2.21 µM (inactive) | 2 µM (inactive) | 5.97 µM (inactive) | 8.75 µM (inactive) | 2.59 µM (inactive) | 3.16 µM (inactive) | 5.52 µM (inactive) | 8.89 µM (inactive) | 3.49 µM (inactive) | 18.7 µM (inactive) | 3.01 µM (inactive) | 5.2 µM (inactive) | 6.71 µM (inactive) | 4.93 µM (inactive) | 10.4 µM (inactive) | 5.57 µM (inactive) | 4.91 µM (inactive) |
